The numbers were not newly measured in US20100158923A1, “REDUCING POLYGLUTAMINE-BASED AGGREGATION” (Northwestern University, priority 2003, published 2010), which cites them from elsewhere.

The target of one series is human SST2 (Homo sapiens, UniProt P30874).
The next series has as its system GH release. As to conditions: administered orally and parenterally.
In a further series the test system is IGF-1 levels. As to conditions: administered subcutaneously.

Chain of human SST2 (P30874 whole entry): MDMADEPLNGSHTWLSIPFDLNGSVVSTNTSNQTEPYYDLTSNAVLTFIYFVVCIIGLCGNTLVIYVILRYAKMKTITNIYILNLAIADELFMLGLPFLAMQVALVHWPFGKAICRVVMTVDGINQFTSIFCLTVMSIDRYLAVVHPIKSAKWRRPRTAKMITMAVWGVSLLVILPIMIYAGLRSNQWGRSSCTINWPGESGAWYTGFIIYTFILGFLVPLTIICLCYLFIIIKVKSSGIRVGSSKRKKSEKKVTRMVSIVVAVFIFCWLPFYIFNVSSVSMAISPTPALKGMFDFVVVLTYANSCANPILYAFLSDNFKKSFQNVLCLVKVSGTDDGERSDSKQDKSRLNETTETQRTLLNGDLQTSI

Take `CC(C)(C)OC(=O)[C@H](CCCCN)NC(=O)[C@@H](Cc1c[nH]c2ccccc12)NC(=O)N1CCC(n2c(=O)[nH]c3ccccc32)CC1` [L-054,522]: the selectivity entry on human SST2 (SST2 binding, comparison receptors not stated) is “highly selective”. Moreover, the Kd at human SST2 (binding to human SST2, read-out: apparent Kd) was 0.01 nM. As for `CC(C)(N)C(=O)N[C@H](COCc1ccccc1)C(=O)N1CCC2(CC1)CN(S(C)(=O)=O)c1ccccc12` [MK-0677], the GH-releasing effects result in the series with GH release is reported as “potent GH-releasing effects”. Take “Pegvisomant: modified human GH in which nine amino acids have been replaced, with polyethylene glycol polymers; GH receptor antagonist”: the “effect on IGF-1 levels” value in the series with IGF-1 levels is “dose dependent reduction”.

As for “[N-acetyl-Tyr^1,D-Arg^2] GHRH^1-29NH2 [standard GHRH antagonist]”, in the series with GH secretion (response to exogenous GHRH), the “effect on human GH secretory response to exogenous GHRH” value is recorded as “inhibits”. Besides, the “effect on spontaneous GH secretion” value with GH secretion (spontaneous GH secretion) was “lowers”.
